Laboratory results as given in patent US20230271969A1, “NITROGEN-CONTAINING FUSED RING DERIVATIVE INHIBITOR, PREPARATION METHOD THEREFOR AND USE THEREOF” (Shanghai Hansoh Biomedical Co., Ltd., priority 2020, published 2023).

Columns and labels:
NK3 receptors [1] = molecular target: T1, NK3 receptors (Homo sapiens, UniProt P29371); test: Calcium ion fluidity (FLIPR) in cells with stable expression of NK3 receptors; format: cell-based; settings: calcium signal, antagonist mode, read-out: NK3R IC50 (nM) FLIPR
T1 construct: expressed in transfected cells
T1 sequence (P29371 1-465): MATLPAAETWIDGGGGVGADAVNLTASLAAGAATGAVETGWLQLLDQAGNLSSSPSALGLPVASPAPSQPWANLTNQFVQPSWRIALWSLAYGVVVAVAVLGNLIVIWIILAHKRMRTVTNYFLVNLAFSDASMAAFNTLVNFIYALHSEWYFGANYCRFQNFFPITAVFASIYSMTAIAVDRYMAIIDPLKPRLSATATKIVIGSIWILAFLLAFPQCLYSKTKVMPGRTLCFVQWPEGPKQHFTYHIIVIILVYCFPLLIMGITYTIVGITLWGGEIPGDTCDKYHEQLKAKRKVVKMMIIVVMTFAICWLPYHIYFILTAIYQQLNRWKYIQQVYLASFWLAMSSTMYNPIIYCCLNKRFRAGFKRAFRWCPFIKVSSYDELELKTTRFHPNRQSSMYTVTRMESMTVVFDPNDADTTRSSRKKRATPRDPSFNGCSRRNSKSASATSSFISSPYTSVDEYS
Excerpt: Determination of the Effect of the Compounds of the Present Invention on Calcium Ion Fluidity in Cells with Stable Expression of NK3 Receptors
Experimental objective: The objective of this test example was to determine the inhibitory effect of the compounds on NK3 receptors.
Experimental Methods: • 1. […] Probenecid and BSA were freshly added on the day of the experiment. The buffers for the experiments included dye buffer, compound dilution buffer and the like. • 2. […] The culture medium was discarded, and 20 μL of dye was added. The cells were incubated at 37° C. in the dark for 60 min, and then the calcium signal was read. • 4. The antagonist was prepared before the experiments. […] The plate was transferred to FLIPR, and 6× concentration of the agonist compound was added at 5 μL/well. The values were read and the data were saved by using FLIPR. The total assay volume was 30 μL, comprising 20 μL/well of dye buffer, 5 μL/well of 5× concentration of the experimental compound, and 5 μL/well of 6× concentration of the agonist compound.
The calcium signal value was read by FLIPR. The output of each sampling time point in the experiment was calculated as the ratio of the signals at wavelengths of 340/510 nm to 380/510 nm. The maximum minus minimum value was calculated from the ratio signal curve. The IC50 value of the compound was calculated by fitting the data of inhibition rate percentage and ten concentrations to the parametric nonlinear logistic equation by using GraphPad prism.

NK3 receptors [2] = molecular target: T1, NK3 receptors; test: Antagonism of IP1 in HEK293 cells with stable expression of NK3; format: cell-based; settings: agonist Senktide 3 nM, read-out: NK3R IC50 (nM) IP1
Method: Determination of the Effect of the Compounds of the Present Invention on IP1 in HEK293 Cells with Stable Expression of NK3
The objective of this test example was to determine the antagonism effect of the compounds on the activity of HEK293-NK3 cells.
3. Experimental Methods: • 1. […] HEK293-NK3 cell line was cultured in complete medium and seeded in the coated dishes at 37° C., 5% CO2 until 70%˜90% confluence. • 3. […] The cells were digested and resuspended in 1× Stimulation Buffer (IP-ONE Gq Kit), seeded into the 384-well cell culture plate (which contained the compound to be tested) at 5,000 cells/well/5 μL by using Multidrop Combi. The culture plate was centrifuged at 300 rpm at room temperature for 60 seconds, and then incubated at 37° C., 5% CO2 for 15 minutes. • 5. The cell culture plate was taken out from the CO2 incubator. […] The culture plate was centrifuged at 300 rpm at room temperature for 60 seconds, and then incubated at 37° C., 5% CO2 for 2 hours. • 6. The cell culture plate was taken out from the CO2 incubator. 5 μL of IP1 d2 reagent and then 5 μL of IP1 Tb Cryptate Antibody reagent were added by using Multidrop Combi. The culture plate was centrifuged at room temperature at 300 rpm for 60 seconds, and left to stand at room temperature for 1 hour. • 7. The plate was read by using EnVision Multilabel Reader, and data were collected at the same time.
The fluorescence signal ratio (Ratio) was read and collected by EnVision Multilabel Reader. According to the readings of the Low control (DMSO control) and High control (p)ositive compound) experimental groups, the antagonism percentage data were calculated as {% antagonism=(Ratio sample−Ratio low control)/(Ratio high control−Ratio low control)×100}.

SMILES	IC50 (NK3 receptors [1]) [nM]	IC50 (NK3 receptors [2]) [nM]
[2H]c1cc(C(=O)N2CCn3c(-c4nc5cc(Cl)c(F)cc5s4)nnc3[C@H]2C)ccc1F [Example 105, (R)-(3-(5-Chloro-6-fluorobenzo[d]thiazol-2-yl)-8-methyl-5,6-dihydro-[1,2,4]triazolo[4,3-a]pyrazin-7(8H)-yl)(4-fluorophenyl-3-d)methanone]	268	108
C[C@@H]1c2nnc(-c3nc4cnc(Cl)cc4s3)n2CCN1C(=O)c1ccc(Cl)cc1 [Example 97, (R)-(4-Chlorophenyl)(3-(6-chlorothiazolo[4,5-c]pyridin-2-yl)-8-methyl-5,6-dihydro-[1,2,4]triazolo[4,3-a]pyrazin-7(8H)-yl)methanone]	156	172
Cc1cccc2sc(-c3nnc4n3CCN(C(=O)c3ccc(F)cc3)[C@@H]4C)nc12 [Example 22, (R)-(4-Fluorophenyl)(8-methyl-3-(4-methylbenzo[d]thiazol-2-yl)-5,6-dihydro-[1,2,4]triazolo[4,3-a]pyrazin-7(8H)-yl)methanone]	73.3	57
Cc1cccc2sc(-c3nnc4n3CCN(C(=O)c3ccc(Cl)cc3)[C@@H]4C)nc12 [Example 23, (R)-(4-Chlorophenyl)(8-methyl-3-(4-methylbenzo[d]thiazol-2-yl)-5,6-dihydro-[1,2,4]triazolo[4,3-a]pyrazin-7(8H)-yl)methanone]	97.8	43.6
[2H]c1c([2H])c(C(=O)N2CCn3c(-c4nc(Cl)ns4)nnc3[C@H]2C)c([2H])c([2H])c1F [Example 55, (R)-(3-(3-Chloro-1,2,4-thiadiazol-5-yl)-8-methyl-5,6-dihydro-[1,2,4]triazolo[4,3-a]pyrazin-7(8H)-yl)(4-fluorophenyl-2,3,5,6-d4)methanone]	219	88.3
C[C@@H]1c2nnc(-c3nc4ccc(C#N)cc4s3)n2CCN1C(=O)c1ccc(F)cc1 [Example 21, (R)-2-(7-(4-Fluorobenzoyl)-8-methyl-5,6,7,8-tetrahydro-[1,2,4]triazolo[4,3-a]pyrazin-3-yl)benzo[d]thiazol-6-carbonitrile]	123	28.2
C[C@@H]1c2nnc(-c3nc4ccc(F)cc4s3)n2CCN1C(=O)c1ccc(F)cc1 [Example 12, (R)-(3-(6-Fluorobenzo[d]thiazol-2-yl)-8-methyl-5,6-dihydro-[1,2,4]triazolo[4,3-a]pyrazin-7(8H)-yl)(4-fluorophenyl)methanone]	37	39.3
[2H]c1cc(C(=O)N2CCn3c(-c4nc5ccc(Cl)cc5s4)nnc3[C@H]2C)ccc1Cl [Example 102, (R)-(3-(6-Chlorobenzo[d]thiazol-2-yl)-8-methyl-5,6-dihydro-[1,2,4]triazolo[4,3-a]pyrazin-7(8H)-yl)(4-chlorophenyl-3-d)methanone]	32.5	16.4
Cc1ccc2nc(-c3nnc4n3CCN(C(=O)c3ccc(Cl)cc3)[C@@H]4C)sc2c1 [Example 25, (R)-(4-Chlorophenyl)(8-methyl-3-(6-methylbenzo[d]thiazol-2-yl)-5,6-dihydro-[1,2,4]triazolo[4,3-a]pyrazin-7(8H)-yl)methanone]	58.4	47.8
Cc1ccc2nc(-c3nnc4n3CCN(C(=O)c3ccc(F)cc3)[C@@H]4C)sc2c1 [Example 24, (R)-(4-Fluorophenyl)(8-methyl-3-(6-methylbenzo[d]thiazol-2-yl)-5,6-dihydro-[1,2,4]triazolo[4,3-a]pyrazin-7(8H)-yl)methanone]	45.6	49.5
C[C@@H]1c2nnc(-c3nc4ccc(F)cc4s3)n2CCN1C(=O)c1ccc(Cl)cc1 [Example 13, (R)-(4-Chlorophenyl)(3-(6-fluorobenzo[d]thiazol-2-yl)-8-methyl-5,6-dihydro-[1,2,4]triazolo[4,3-a]pyrazin-7(8H)-yl)methanone]	71.6	131
[2H]C([2H])([2H])N(c1nsc(-c2nnc3n2CCN(C(=O)c2ccc(Cl)cc2)[C@@H]3C)n1)C([2H])([2H])[2H] [Example 107, (R)-(3-(3-(Bis(methyl-d3)amino)-1,2,4-thiadiazol-5-yl)-8-methyl-5,6-dihydro-[1,2,4]triazolo[4,3-a]pyrazin-7(8H)-yl)(4-chlorophenyl)methanone]	184	80.5
C[C@@H]1c2nnc(-c3nc4cc(F)ccc4s3)n2CCN1C(=O)c1ccc(Cl)c(Cl)c1 [Example 11, (R)-(3,4-Dichlorophenyl)(3-(5-fluorobenzo[d]thiazol-2-yl)-8-methyl-5,6-dihydro-[1,2,4]triazolo[4,3-a]pyrazin-7(8H)-yl)methanone]	47.5	176
C[C@@H]1c2nnc(-c3nc(Cl)ns3)n2CCN1C(=O)c1cc(F)c(F)c(F)c1 [Example 58, (R)-(3-(3-Chloro-1,2,4-thiadiazol-5-yl)-8-methyl-5,6-dihydro-[1,2,4]triazolo[4,3-a]pyrazin-7(8H)-yl)(3,4,5-trifluorophenyl)methanone]	183	84.1
C[C@@H]1c2nnc(-c3nc4ccc(F)cc4s3)n2CCN1C(=O)c1ccc(Cl)c(Cl)c1 [Example 14, (R)-(3,4-Dichlorophenyl)(3-(6-fluorobenzo[d]thiazol-2-yl)-8-methyl-5,6-dihydro-[1,2,4]triazolo[4,3-a]pyrazin-7(8H)-yl)methanone]	97.6	41.9
C[C@@H]1c2nnc(-c3nc(N(C)C)ns3)n2CCN1C(=O)c1ccc(F)cc1 [Example 60, (R)-(3-(3-(Dimethylamino)-1,2,4-thiadiazol-5-yl)-8-methyl-5,6-dihydro-[1,2,4]triazolo[4,3-a]pyrazin-7(8H)-yl)(4-fluorophenyl)methanone]	205	190
COc1ccc2nc(-c3nnc4n3CCN(C(=O)c3ccc(Cl)cc3)[C@@H]4C)sc2c1 [Example 30, (R)-(4-Chlorophenyl)(3-(6-methoxybenzo[d]thiazol-2-yl)-8-methyl-5,6-dihydro-[1,2,4]triazolo[4,3-a]pyrazin-7(8H)-yl)methanone]	47.4	187
[2H]c1cc(C(=O)N2CCn3c(-c4nc5ccc(F)cc5s4)nnc3[C@H]2C)ccc1F [Example 61, (R)-(3-(6-Fluorobenzo[d]thiazol-2-yl)-8-methyl-5,6-dihydro-[1,2,4]triazolo[4,3-a]pyrazin-7(8H)-yl)(4-fluorophenyl-3-d)methanone]	78.9	108
COc1ccc2nc(-c3nnc4n3CCN(C(=O)c3ccc(Cl)c(Cl)c3)[C@@H]4C)sc2c1 [Example 31, (R)-(3,4-Dichlorophenyl)(3-(6-methoxybenzo[d]thiazol-2-yl)-8-methyl-5,6-dihydro-[1,2,4]triazolo[4,3-a]pyrazin-7(8H)-yl)methanone]	86.7	43.2
C[C@@H]1c2nnc(-c3nc4cc(F)ccc4s3)n2CCN1C(=O)c1ccc(Cl)cc1 [Example 10, (R)-(4-Chlorophenyl)(3-(5-fluorobenzo[d]thiazol-2-yl)-8-methyl-5,6-dihydro-[1,2,4]triazolo[4,3-a]pyrazin-7(8H)-yl)methanone]	51.4	172
